Laboratory results reported in patent publication US8258184B1, “Use of vegetable butter-based cetyl myristoleate for treating osteoarthritis and other musculoskeletal disease conditions and injuries” (Botanoceuticals, Inc., priority 2002, dated 2012).

How the values were obtained:
[1] = test system: severe arthritis caused by injuries in a horse; assay: Treatment of osteoarthritis caused by injuries in a horse (Example 3, case report); type: in vivo; conditions: 30-year-old mare, previous treatments given together
Text: Joint Response was tried as a last resort.

[2] = test system: arthritis in Swiss albino mice; conditions: cited from earlier work
[3] = test system: arthritis in laboratory rats exposed to Freund's adjuvant; conditions: cited from earlier work

CCCCC1C(=O)N(c2ccccc2)N(c2ccccc2)C1=O [Butte]
alleviation of discomfort by previous treatments [1]: not working nearly well enough

CCCC/C=C\CCCCCCCC(=O)OCCCCCCCCCCCCCCCC [CM, cetyl myristoleate]
protection from arthritis [2]: protected
protection from arthritis [3]: protected

N[C@H]1C(O)O[C@H](CO)[C@@H](O)[C@@H]1O (some centres unmarked) [Glucosamine, glucosamine]
alleviation of discomfort by previous treatments [1]: not working nearly well enough

CS(C)(=O)=O [MSM, methylsulfonylmethane]
alleviation of discomfort by previous treatments [1]: not working nearly well enough
